The values that follow come from patent US9962398B2, “Sulfonamide compounds for inhibition of metastatic tumor growth” (Welichem Biotech Inc., priority 2010, dated 2018).

Where two headings read alike, the source gives them in different places.

One assay addresses hCA XII (Homo sapiens (Human), UniProt O43570). Particulars: read-out: KI (nM) Activity hCAXII; Table 1.
In another assay the target is hCA IX (Homo sapiens (Human), UniProt Q16790).
Another assay has as its system MDA-231 LM2-4 Luc+ cells. The assay can be described thus: 3D Matrigel invasion assay in hypoxia. It is filed as cell-based, human. Particulars: 4 days in hypoxia. The procedure:
A 3D “on-top” matrigel culture assay was performed as described previously (Lee et al, (2007) Nat Methods 4:359-365). […] Cells were allowed to attach for 45 minutes with side-to-side agitation every 10-15 minutes to prevent clumping of cells in the center of the well. An additional 100 μl/well media containing 10% matrigel was added to the cells and cultures were incubated in hypoxia for 4 days. Images were acquired and cultures were fixed for TUNEL using the “whole culture fixation” methodology outlined in Lee et al, (2007) Nat Methods 4:359-365).
Treatment with novel sulfonamide inhibitors of CAIX attenuates hypoxia-induced invasion of human breast cancer cells grown in 3D Matrigel™ cultures (FIG. 16). Cells were cultured in 3D “on-top” Matrigel™ assays for 4 days in hypoxia in the presence of inhibitors. DMSO-treated cell cultures served as controls. The percentage concentration of DMSO and molar concentration of inhibitors are indicated. Representative phase contrast images are shown.

A further assay concerns the target hCA I (Homo sapiens (Human), UniProt P00915). Particulars: read-out: KI (nM) Activity hCAI; Table 1.
In the next assay the test system is 4T1 mammary tumor cells. The assay can be described thus: Experimental metastasis assay, intravenous 4T1 cells, bioluminescence. It is filed as in vivo, mouse. Particulars: i.v. 4T1 cells, three i.p. doses over 6 days, imaged 24 h after third dose. The procedure: For studies involving genetic depletion of CAIX, 4T1 or 67NR cells (5×10^5) were injected directly into the tail vein of 7-9 week-old female BALB/c mice. Mice were imaged once per week to follow the growth of metastases. Mice were euthanized 20 days post-injection and lungs were resected for further analysis. Tumor burden in the lung was quantified by manually counting nodules visible on the lung surface. For studies using sulphonamide inhibitors, 4T1 cells (1-5×10^5) were injected as described above (Pacchiano et al, (2011) J Med Chem 54:1896-1902).
Animals were treated 24 hours post inoculation of cells. Three doses were administered by i.p. injection over 6 days and the mice were imaged 24 hours following the third dose of inhibitor. […] Quantification of tumor-derived bioluminescence is shown in 12C. Regions of interest were positioned around metastatic foci and total flux (photons/sec) at the mouse surface was calculated. Data are reported as the mean±s.e.m. N=4 per group. *P<0.05.
4T1 cells were injected directly into the tail vein of BALB/c mice. […] Vehicle and inhibitor were administered by i.p. injection. Shown are representative images of tumor-cell derived bioluminescence in control and inhibitor-treated animals.

Where [1] appears, read: read-out: KI (nM) Activity hCAIX, Table 1.
Where [2] appears, read: read-out: Ki (nM) hCA IX, Table 2.
Where [3] appears, read: read-out: Ki (nM) hCA IX, Table 3.

By Ki is commonly meant a measure of affinity in units of concentration, obtained from inhibition or displacement.

hCA I, sequence (P00915 whole entry): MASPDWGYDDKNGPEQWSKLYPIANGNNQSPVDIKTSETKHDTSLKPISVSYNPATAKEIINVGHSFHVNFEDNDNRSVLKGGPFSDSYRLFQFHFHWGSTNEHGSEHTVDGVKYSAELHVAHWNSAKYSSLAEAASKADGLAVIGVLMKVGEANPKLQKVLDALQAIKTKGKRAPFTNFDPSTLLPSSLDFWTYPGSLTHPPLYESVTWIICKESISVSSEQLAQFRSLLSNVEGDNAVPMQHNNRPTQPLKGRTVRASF
hCA XII, sequence (O43570 25-354): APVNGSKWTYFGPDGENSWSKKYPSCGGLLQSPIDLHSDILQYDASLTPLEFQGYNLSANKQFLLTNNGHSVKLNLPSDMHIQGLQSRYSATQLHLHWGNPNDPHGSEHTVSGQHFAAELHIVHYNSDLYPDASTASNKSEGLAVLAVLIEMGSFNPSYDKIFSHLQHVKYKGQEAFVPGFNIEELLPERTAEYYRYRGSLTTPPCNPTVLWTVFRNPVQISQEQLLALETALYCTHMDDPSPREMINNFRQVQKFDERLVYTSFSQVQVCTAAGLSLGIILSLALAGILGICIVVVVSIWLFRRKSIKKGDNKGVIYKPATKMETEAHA

For `NS(=O)(=O)c1ccc(NC(=O)Nc2ccc(Br)cc2)cc1` [MST-105, 4-({[(4′-Bromophenyl)amino]carbonyl}amino)benzenesulfonamide], the Ki at hCA XII was 7.9 nM; on hCA IX (setting [1]), 69.3 nM. In the same order, the values of `NS(=O)(=O)c1ccc(NC(=O)Nc2ccc(I)cc2)cc1` [MST-106, 4-{[(4′-Iodophenyl)carbamoyl]amino}benzenesulfonamide] are 4.3 nM and 24.5 nM. `NS(=O)(=O)c1ccc(NC(=O)Nc2c(F)c(F)c(F)c(F)c2F)cc1` [MST-107, 4-{[(Pentafluorophenyl)carbamoyl]amino}benzenesulfonamide]: the values for the Ki on hCA XII and at hCA IX (setting [1]) were 5.1 nM and 5.4 nM, respectively. Besides, the hypoxia-induced invasion entry in the assay on MDA-231 LM2-4 Luc+ cells is reported as “inhibit invasion”. Regarding `COc1ccccc1NC(=O)Nc1ccc(S(N)(=O)=O)cc1` [MST-108], the Ki at hCA XII was 61.2 nM; at hCA I, 92 nM; at hCA IX (setting [1]), 465 nM. In the case of `CC(=O)c1ccc(NC(=O)Nc2ccc(S(N)(=O)=O)cc2)cc1` [MST-109, 4-{([(4′-Acetylphenyl)amino]carbonyl)amino}benzenesulfonamide], the Ki on hCA XII came out at 4.6 nM. Regarding `CC(C)c1ccccc1NC(=O)Nc1ccc(S(N)(=O)=O)cc1` [MST-110, 4-{([(2′-Isopropylphenyl)amino]carbonyl)amino}benzenesulfonamide], the Ki on hCA XII came to 4.2 nM; on hCA IX (setting [1]) it was 0.5 nM.

Regarding `CC(C)c1ccc(NC(=O)Nc2ccc(S(N)(=O)=O)cc2)cc1` [MST-111, 4-{([(4′-Isopropylphenyl)amino]carbonyl)amino}benzenesulfonamide], the Ki on hCA XII amounted to 49.7 nM; at hCA IX (setting [1]), 541 nM.

For `CCCCc1ccc(NC(=O)Nc2ccc(S(N)(=O)=O)cc2)cc1` [MST-112, 4-({[(4′-Butylphenyl)amino]carbonyl}amino)benzenesulfonamide], the Ki stood at 28.5 nM at hCA XII and 376 nM on hCA IX (setting [1]).

Turning to `CCCCOc1ccc(NC(=O)Nc2ccc(S(N)(=O)=O)cc2)cc1` [MST-113, 4-{[(4′-Butoxyphenyl)carbamoyl]amino}benzenesulfonamide], the inhibition constant Ki on hCA XII was 2.5 nM; at hCA IX (setting [1]) it was 0.8 nM.

`N#Cc1ccc(NC(=O)Nc2ccc(S(N)(=O)=O)cc2)cc1` [MST-115, 4-{[(4′-Cyanophenyl)carbamoyl]amino}benzenesulfonamide]: the Ki was 6.5 nM at hCA XII, 57 nM at hCA I and 6 nM on hCA IX (setting [1]). In the same order, the values of `N#Cc1ccccc1NC(=O)Nc1ccc(S(N)(=O)=O)cc1` [MST-116, 4-{([(2′-Cyanophenyl)amino]carbonyl)amino}benzenesulfonamide] are 4.6 nM, 10.9 nM and 0.3 nM.

With `NS(=O)(=O)c1ccc(NC(=O)Nc2ccc(Oc3ccccc3)cc2)cc1` [MST-117, 4-({[(4′-Phenoxyphenyl)amino]carbonyl}amino)benzenesulfonamide], the Ki turned out to be 7.1 nM on hCA XII, 604 nM at hCA I and 69.1 nM on hCA IX (setting [1]).

Take `NS(=O)(=O)c1ccc(NC(=O)Nc2cccc([N+](=O)[O-])c2)cc1` [MST-119, 4-{[(3′-Nitrophenyl)carbamoyl]amino}benzenesulfonamide]: the hypoxia-induced invasion entry with MDA-231 LM2-4 Luc+ cells was “inhibit invasion”. In addition, the “formation of metastases (tumor-derived bioluminescence)” value with 4T1 mammary tumor cells is “reduces the formation of metastases”. Also, the Ki at hCA IX (setting [1]) is 0.9 nM. As to `COc1ccc(NC(=O)Nc2ccc(S(N)(=O)=O)cc2)c(C)c1` [MST-120, 4-{([(4′-Methoxy-2′-methylphenyl)amino]carbonyl)amino}benzenesulfonamide], on hCA XII, the Ki amounted to 6 nM. Turning to `NS(=O)(=O)c1ccc(NC(=O)NC2CCCC2)cc1` [MST-122, 4-[(Cyclopentylcarbamoyl)amino]benzenesulfonamide], the Ki on hCA XII was 7 nM; on hCA IX (setting [1]), 7.3 nM. On to `NS(=O)(=O)c1ccc(NC(=O)Nc2ccc(Cl)cc2)cc1` [MST-124, 4-{([(4′-chlorophenyl)amino]carbonylamino)}benzenesulfonamide], for which the Ki on hCA XII was found to be 5.3 nM. As to `NS(=O)(=O)c1cccc(NC(=O)Nc2ccc(I)cc2)c1` [MST-128, 3-(3-(4′-Iodophenyl)ureido)benzenesulfonamide], the Ki at hCA IX (setting [2]) was 13.1 nM. Same read-out and setting: the result for `NS(=O)(=O)c1cccc(NC(=O)Nc2ccc(F)cc2)c1` [MST-129, 3-(3-(4′-Fluorophenyl)ureido)benzenesulfonamide] reads 10.2 nM. Regarding `NS(=O)(=O)c1cccc(NC(=O)Nc2cccc([N+](=O)[O-])c2)c1` [MST-130, 3-(3-(3′-Nitrophenyl)ureido)benzenesulfonamide], the hypoxia-induced invasion result in the assay on MDA-231 LM2-4 Luc+ cells is “inhibit invasion”. In addition, on hCA IX (setting [2]), the Ki came to 7.9 nM. Take `CC(=O)c1ccc(NC(=O)Nc2cccc(S(N)(=O)=O)c2)cc1` [MST-131, 3-(3-(4′-Acetylphenyl)ureido)benzenesulfonamide]: on hCA IX (setting [2]), the inhibition constant Ki is 15.1 nM. Same read-out and setting: then `CC(C)c1ccccc1NC(=O)Nc1cccc(S(N)(=O)=O)c1` [MST-132, 3-(3-(2′-Isopropylphenyl)ureido)benzenesulfonamide], with 18.5 nM.

As to `NS(=O)(=O)c1ccc(NC(=O)Nc2ccc(Cl)cc2F)cc1` [MST-134, 4-(3-(4′-chloro-2-fluorophenyl)ureido)benzenesulfonamide], at hCA IX (setting [3]), the Ki amounted to 5.1 nM. The same measure, in the same setting: the result for `NS(=O)(=O)c1ccc(NC(=O)Nc2cc(F)c(F)cc2F)cc1` [MST-137, 4-(3-(2′,4′,5′-trifluorophenyl)ureido)benzenesulfonamide] reads 7.6 nM. With `NS(=O)(=O)c1ccc(NC(=O)Nc2cc(C(F)(F)F)ccc2F)cc1` [MST-138, 4-(3-(2′-fluoro-5′-(trifluoromethyl)phenyl)ureido)benzenesulfonamide], the Ki on hCA IX (setting [3]) was 7.4 nM. The same measure, in the same setting: the result for `NS(=O)(=O)c1ccc(NC(=O)Nc2ccc(F)c(F)c2F)cc1` [MST-140, 4-(3-(2′,3′,4′-trifluorophenyl)ureido)benzenesulfonamide] reads 9.6 nM; that for `NS(=O)(=O)c1ccc(NC(=O)Nc2ccccc2F)cc1` [MST-141, 4-(3-(2′-fluorophenyl)ureido)benzenesulfonamide], 7.7 nM. Same read-out and setting: then `NS(=O)(=O)c1ccc(NC(=O)Nc2ccc(F)cc2F)cc1` [MST-142, 4-(3-(2′,4′-difluorophenyl)ureido)benzenesulfonamide], with 3.7 nM; and `NS(=O)(=O)c1ccc(NC(=O)Nc2cc(Cl)ccc2Cl)cc1` [MST-144, 4-(3-(2′,5′-dichlorophenyl)ureido)benzenesulfonamide], with 8.9 nM. Regarding `NS(=O)(=O)c1ccc(NC(=O)Nc2cc([N+](=O)[O-])ccc2Cl)cc1` [MST-145, 4-(3-(2′-Chloro-5-nitrophenyl)ureido)benzenesulfonamide], the Ki at hCA IX (setting [3]) turned out to be 8.2 nM.
